The record followed here is ChEMBL document CHEMBL5620342, “Recent advances of novel fourth generation EGFR inhibitors in overcoming C797S mutation of lung cancer therapy” (Eur J Med Chem, 2023).

Broadly, the inhibition is the relative decrease from the control value, in per cent. A high value points to a strong effect. The term IC50 denotes the concentration at which inhibition is half-maximal. One may read the bioavailability as the share of a dose that reaches the circulation, judged against a reference dose that is usually intravenous. Read a high bioavailability as much systemic uptake.

Data set [1] concerns BaF3. The data set can be described thus: Inhibition of EGFR phosphorylation in mouse BaF3 cells harboring EGFR L858R/T790M/C797S triple mutant at 10 uM by Western blotting analysis. In kind it is cell-based. For orientation: In western blotting, separated proteins are transferred to a membrane and probed.
For data set [2], the system named is BaF3. The data set can be described thus: Cytotoxicity against mouse BaF3 cells harboring EGFR L858R/T790M/C797S mutant assessed as reduction in cell viability incubated for 96 hrs by CellTiter-Glo assay. The data set is classed as functional, cell-based. The settings on record: BaF3, 96 h.
The test system of data set [3] is BaF3. The data set can be described thus: Inhibition of cell proliferation of mouse BaF3 cells expressing EGFR Del19/T790M/C797S mutant (unknown origin). The data set is classed as functional, cell-based.
Data set [4] has as its system BaF3. As to the kind of experiment: Cytotoxicity against mouse BaF3 cells harboring wild type EGFR assessed as reduction in cell viability incubated for 72 hrs by CellTiter-Glo assay. In kind it is functional, cell-based. The conditions noted are these: BaF3, 72 h. (In general: Cellular ATP, detected with luciferase, serves as a proxy for viable cell number.)
Data set [5] is described as follows: Inhibition of EGFR T790M/C797S double mutant (unknown origin). Set-up: species or system Homo sapiens.
For data set [6], the target named is Epidermal growth factor receptor (Homo sapiens, UniProt P00533). As to the kind of experiment: Inhibition of wild type EGFR (unknown origin) by ELISA analysis. (An ELISA detects its analyte on a solid surface through an enzyme-linked reagent.)
Sequence of Epidermal growth factor receptor (Homo sapiens, UniProt P00533) (P00533 whole entry): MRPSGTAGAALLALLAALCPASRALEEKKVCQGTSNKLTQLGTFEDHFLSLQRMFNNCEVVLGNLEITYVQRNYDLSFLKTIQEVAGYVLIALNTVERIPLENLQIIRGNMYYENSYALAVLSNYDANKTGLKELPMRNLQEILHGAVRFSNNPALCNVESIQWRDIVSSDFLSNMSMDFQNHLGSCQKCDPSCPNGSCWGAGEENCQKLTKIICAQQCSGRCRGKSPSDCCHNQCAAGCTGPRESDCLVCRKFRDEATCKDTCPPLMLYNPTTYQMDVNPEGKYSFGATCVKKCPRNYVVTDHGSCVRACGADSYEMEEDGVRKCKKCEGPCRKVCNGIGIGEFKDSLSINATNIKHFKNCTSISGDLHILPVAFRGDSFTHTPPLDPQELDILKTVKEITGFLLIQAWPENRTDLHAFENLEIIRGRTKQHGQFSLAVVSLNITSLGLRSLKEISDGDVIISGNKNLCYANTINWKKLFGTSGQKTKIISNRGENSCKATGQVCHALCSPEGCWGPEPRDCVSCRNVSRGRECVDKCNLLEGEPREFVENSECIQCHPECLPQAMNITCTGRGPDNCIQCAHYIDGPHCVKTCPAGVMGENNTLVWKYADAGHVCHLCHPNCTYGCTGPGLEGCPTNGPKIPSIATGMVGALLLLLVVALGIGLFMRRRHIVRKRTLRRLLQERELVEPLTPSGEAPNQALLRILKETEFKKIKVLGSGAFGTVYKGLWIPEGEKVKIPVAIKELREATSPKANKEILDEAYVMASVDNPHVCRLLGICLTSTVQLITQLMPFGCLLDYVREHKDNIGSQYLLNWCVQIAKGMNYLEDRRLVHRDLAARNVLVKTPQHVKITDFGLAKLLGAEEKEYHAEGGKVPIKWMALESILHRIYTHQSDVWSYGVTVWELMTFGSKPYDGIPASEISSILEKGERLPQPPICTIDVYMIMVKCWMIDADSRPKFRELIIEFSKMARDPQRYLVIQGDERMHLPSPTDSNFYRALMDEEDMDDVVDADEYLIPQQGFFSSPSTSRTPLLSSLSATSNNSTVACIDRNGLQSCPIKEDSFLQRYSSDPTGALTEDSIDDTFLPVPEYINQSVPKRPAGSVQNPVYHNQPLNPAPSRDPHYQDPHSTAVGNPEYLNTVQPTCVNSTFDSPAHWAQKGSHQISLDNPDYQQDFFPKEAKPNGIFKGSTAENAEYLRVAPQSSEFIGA
The target in data set [7] is T1, Epidermal growth factor receptor (Homo sapiens, UniProt P00533, C797S/L858R/T790M). As to the kind of experiment: Inhibition of EGFR L858R/T790M/C797S mutant (unknown origin) using TK-substrate preincubated with enzyme for 30 mins followed by substrate for 10 mins by HTRF assay.
T1 sequence (P00533 25-1210 T790M/C797S/L858R limits assumed): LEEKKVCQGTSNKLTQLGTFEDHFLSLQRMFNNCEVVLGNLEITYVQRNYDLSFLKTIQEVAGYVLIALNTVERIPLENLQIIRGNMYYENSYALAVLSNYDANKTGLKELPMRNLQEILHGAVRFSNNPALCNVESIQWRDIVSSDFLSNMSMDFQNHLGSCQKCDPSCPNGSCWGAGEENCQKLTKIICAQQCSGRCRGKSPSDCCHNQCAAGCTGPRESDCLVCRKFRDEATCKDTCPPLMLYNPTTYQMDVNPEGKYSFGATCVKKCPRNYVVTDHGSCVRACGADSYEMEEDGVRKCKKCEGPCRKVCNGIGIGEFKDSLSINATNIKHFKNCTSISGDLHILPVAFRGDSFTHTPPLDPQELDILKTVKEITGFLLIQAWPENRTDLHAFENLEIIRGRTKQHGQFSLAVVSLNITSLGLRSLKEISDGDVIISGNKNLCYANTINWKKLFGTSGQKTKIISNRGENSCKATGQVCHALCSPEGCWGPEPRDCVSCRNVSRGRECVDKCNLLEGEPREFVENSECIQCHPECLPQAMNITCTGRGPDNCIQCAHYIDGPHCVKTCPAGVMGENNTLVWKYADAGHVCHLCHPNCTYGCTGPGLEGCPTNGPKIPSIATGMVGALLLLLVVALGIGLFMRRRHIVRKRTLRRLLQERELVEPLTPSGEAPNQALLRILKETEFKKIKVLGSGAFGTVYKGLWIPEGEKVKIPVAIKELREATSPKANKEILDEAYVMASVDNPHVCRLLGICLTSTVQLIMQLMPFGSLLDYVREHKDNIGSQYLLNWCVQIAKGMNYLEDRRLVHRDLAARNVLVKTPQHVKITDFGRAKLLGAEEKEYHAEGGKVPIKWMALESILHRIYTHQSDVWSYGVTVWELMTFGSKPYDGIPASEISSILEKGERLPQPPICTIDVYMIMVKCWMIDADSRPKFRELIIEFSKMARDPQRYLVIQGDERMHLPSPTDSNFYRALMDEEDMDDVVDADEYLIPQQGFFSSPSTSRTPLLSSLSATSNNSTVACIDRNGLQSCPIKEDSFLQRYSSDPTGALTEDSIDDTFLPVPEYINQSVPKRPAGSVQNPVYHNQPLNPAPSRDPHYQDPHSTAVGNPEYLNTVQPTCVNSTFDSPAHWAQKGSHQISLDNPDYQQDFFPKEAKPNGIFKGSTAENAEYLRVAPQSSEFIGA
The subject of data set [8] is A-431. The data set can be described thus: Antiproliferative activity against human A-431 cells […] assessed as reduction in cell growth. The data set is classed as functional, cell-based.
The subject of data set [9] is A-431. The data set can be described thus: Cytotoxicity against human A-431 cells expressing wild type EGFR assessed as reduction in cell viability incubated for 96 hrs by CellTiter-Glo assay. The data set is classed as functional, cell-based. The settings on record: A-431, 96 h.
In another data set the test system is NIH3T3. The data set can be described thus: Antiproliferative activity against mouse NIH3T3 cells expressing EGFR Del19/T790M/C797S mutant assessed as reduction in cell proliferation incubated for 72 hrs by MTT assay. The settings on record: NIH3T3, 72 h. In kind it is functional, cell-based.
The target in data set [10] is T1, Epidermal growth factor receptor. As to the kind of experiment: Inhibition of EGFR L858R/T790M/C797S triple mutant (unknown origin) expressed in Bac-to-Bac baculovirus expression system measured after 2 hrs by ELISA method.
For data set [11] the target is unchanged. The data set can be described thus: (§1) Inhibition of […]/T790M/C797S triple mutant (unknown origin) phosphorylation expressed in mouse BaF3 cells by HTRF assay. The data set is classed as cell-based.
A short description of another data set: cells. The settings on record: Mus musculus, Ba/F3 EGFR-T790M/C797S/L858R.
Data set [12] in a line: Oral bioavailability in CD-1 mouse at 3 mg/kg measured after 24 hrs by LC-MS/MS analysis. The data set is classed as ADME, organism-based. The conditions noted are these: in vivo.
Data set [13] has as its system PC-9. As to the kind of experiment: Antiproliferative activity against human PC-9 cells assessed as inhibition of cell growth incubated for 72 hrs by MTT assay. The data set is classed as functional, cell-based. The settings on record: PC-9, 72 h.
The test system of data set [14] is BaF3. As to the kind of experiment: Cytotoxicity against mouse BaF3 cells harboring EGFR-Del19/T790M/C797S mutant assessed as cell growth inhibition measured after 72 hrs by CellTiter-Glo luminescent assay. In kind it is functional, cell-based. The conditions noted are these: BaF3, 72 h.
In data set [15] the test system is PC-9. As to the kind of experiment: Antiproliferative activity against human PC-9 cells expressing EGFR Del19 mutant assessed as inhibition of cell growth measured after 72 hrs by MTT assay. The data set is classed as functional, cell-based. The conditions noted are these: PC-9, 72 h.
Data set [16] has as its system BaF3. The data set can be described thus: Antiproliferative activity against mouse BaF3 cells harboring EGFR L858R/T790M/C797S triple mutant after 72 hrs by resazurin dye-based fluorescence assay. The data set is classed as functional, cell-based. The conditions noted are these: BaF3, 72 h.
Data set [17] has as its target Epidermal growth factor receptor (Homo sapiens, UniProt P00533, T790M/C797S/L858R). The description is as §1. In kind it is cell-based. The conditions noted are these: baf3.
Data set [18] deals with BaF3. As to the kind of experiment: Cytotoxicity against mouse BaF3 cells expressing EGFR L858R mutant assessed as reduction in cell viability. In kind it is functional, cell-based.
Data set [19] deals with PC-9. As to the kind of experiment: Antitumor activity in OR-resistant human PC-9 cells xenografted in […] assessed as tumor growth inhibition at 60 mg/kg, po administered once daily for 14 days relative to control. The settings on record: PC-9, 336 h, time 14 day, read-out: TGI. In kind it is functional.
The nature of data set [20]: Inhibition of EGFR-C797S/T790M/del19 mutant in mouse BaF3 cells assessed as reduction in EGFR phosphorylation incubated for 6 hrs by Western blotting analysis. The data set is classed as cell-based. The conditions noted are these: BaF3, 6 h.
Data set [21] concerns the target T1, Epidermal growth factor receptor. As to the kind of experiment: Inhibition of EGFR L858R/T790M/C797S triple mutant (unknown origin).
Data set [22] deals with PC-9. As to the kind of experiment: Antitumor activity in OR-resistant human PC-9 cells xenografted in […] assessed as tumor growth inhibition at 30 mg/kg, po administered once daily for 14 days relative to control. The data set is classed as functional. The settings on record: PC-9, 336 h, time 14 day, read-out: TGI.
Data set [23] deals with BaF3. The data set can be described thus: Antiproliferative activity against mouse BaF3 cells harboring wild type EGFR assessed as reduction in cell growth. The data set is classed as functional, cell-based.
In data set [24] the test system is BaF3. As to the kind of experiment: Cytotoxicity against mouse BaF3 cells harboring EGFR-Del19/T790M/C797S mutant assessed as cell growth inhibition measured after 96 hrs by CellTiter-Glo luminescent assay. In kind it is functional, cell-based. The conditions noted are these: BaF3, 96 h.

Sequence of Epidermal growth factor receptor (Homo sapiens, UniProt P00533, T790M/C797S/L858R) (P00533 25-1210 T790M/C797S/L858R limits assumed): as above

As to `Oc1ccccc1-c1nc(NCC2CCOC2)c2ccccc2n1` (configuration not stated), the inhibition in the data set on BaF3 [1] was 91%.
Take `CCC(=O)N[C@H]1CC[C@@H](N2C(=O)N(c3ccccc3Cl)Cc3cnc(Nc4ccc(N5CCN(C)CC5)c(C)c4)nc32)CC1`: the figures for the IC50 in the data set on BaF3 [2] and in the data set on BaF3 [3] were 290 nM and 316 nM, respectively.
In the data set with BaF3 [1], `N#Cc1ccc(O)c(-c2nc(NCc3cccnc3)c3ccccc3n2)c1` gave an inhibition of 94.2%.
Consider `O=C(Nc1nccs1)C(c1cc(F)ccc1O)N1Cc2ccccc2C1=O` (configuration not stated), for which the half-maximal inhibitory concentration (IC50) in the data set on BaF3 [2] and in the data set with BaF3 [4] was > 10000 nM throughout.
Regarding `Cc1cc(N2Cc3ccccc3C2)nc2ccc(Cl)cc12`, the IC50 in data set [5] stood at 10.8 nM; in data set [6], 7.59 nM; in [7], 130 nM.
For `CC(C)n1c2cc(Nc3ccnc(-c4cnn(S(=O)(=O)C5CC5)c4)n3)ncc2c2c(OCC(F)(F)F)cc(N3CCN(C)CC3)cc21`, the IC50 with A-431 [8] was 1200 nM; with A-431 [9], 1200 nM; in the data set on NIH3T3, 20 nM; in [10] it was 0.28 nM; in data set [11], 0.25 nM.
`COc1cc(N2CCN(CCCCCCCC(=O)N[C@@H](C(=O)N3C[C@@H](O)C[C@@H]3C(=O)N[C@H](C)c3ccc(-c4nc(C)cs4)cc3)C(C)(C)C)CC2)ccc1Nc1ncc(Cl)c(Nc2ccccc2P(C)(C)=O)n1` gave an IC50 in the data set “cells” of 20 nM.
For the molecule `COc1cc(N2CCC(N3CCN(CCC#Cc4cccc5c4CN(C4CCC(=O)NC4=O)C5=O)CC3)CC2)ccc1Nc1ncc(Cl)c(Nc2ccccc2P(C)(C)=O)n1` (configuration not stated), the bioavailability in data set [12] worked out at 62.3%.
Consider `CO[C@@H]1CCN(c2nccc(Nc3cc4c(C(C)C)ccc(N5C[C@H](CS(C)(=O)=O)[C@H]5C)c4cn3)n2)C[C@@H]1F` [TIGOZERTINIB], for which the IC50 is 4 nM in the data set with BaF3 [2] and 3.2 nM in the data set on BaF3 [3].
`CN1CCN(c2ccc(Nc3ncc4cc(CNc5ccccc5)n(C5CCCC5)c4n3)cc2)CC1` came in with an IC50 in data set [11] of 10 nM.
In the case of `c1ccc(-c2cc(N3Cc4ccccc4C3)nc3ccccc23)cc1`, the values for the concentration for half-maximal inhibition (IC50) in data set [5], in [6] and in data set [7] were 11.2 nM, 7.9 nM and 124 nM, respectively.
As for `C=CC(=O)Nc1cc(Nc2nccc(-c3cn(C)c4ccccc34)n2)c(OC)cc1N(C)CCN(C)C` [OSIMERTINIB], the IC50 in the data set with PC-9 [13] was determined as 4850 nM; in the data set with BaF3 [14] it was 3380 nM; with PC-9 [15], 80 nM; in the data set on BaF3 [16], 4140 nM.
`Cc1cc(N2CCN(C(c3ccccc3)c3ccccc3)CC2)nc2ccc(Cl)cc12`: the figures for the IC50 in [5], in data set [6] and in data set [7] were 10.5 nM, 7.92 nM and 136 nM, respectively.
For the molecule `CNC(=O)c1cnc(Nc2ccnc(N3CCC(O)CC3)n2)cc1NC(C)C`, in data set [17], the half-inhibitory concentration (IC50) worked out at 266 nM.
Consider `COc1cc(N2CCN(C(C)=O)CC2)ccc1Nc1ncc(Cl)c(Nc2ccc(NCc3ccc(S(=O)(=O)F)cc3)cc2)n1`, for which the IC50 with BaF3 [18] was 110 nM; with BaF3 [3], > 10000 nM.
In the case of `CN1CCN(c2ccc(Nc3ncc(Cl)c(Nc4ccccc4P(C)(C)=O)n3)c(Br)c2)CC1`, in the data set on PC-9 [19], the inhibition in vivo at 60 mg/kg was determined as 137%. The IC50 was determined as 180 nM in the data set with PC-9 [13]; 90 nM with BaF3 [14]; 2.4 nM in data set [20]; 230 nM with PC-9 [15]; 120 nM in the data set with BaF3 [16]; 3.1 nM in [21]. In the data set on PC-9 [22], the inhibition in vivo at 30 mg/kg was determined as 83.5%.
For the molecule `COc1ccc(-c2c3c4cc(OCCCN(C)C)c(OCCCN(C)C)cc4oc(=O)c3n3ccc4cc(O)c(OC)cc4c23)cc1O`, the IC50 in the data set on BaF3 [23] is 520 nM; in the data set on BaF3 [24] it was 127 nM.
